What was measured:
HOP-62 = test: NCI 60-cell drug screen, Non-Small Cell Lung Cancer HOP-62; format: cell-based, human; conditions: 1.00E−5 Molar
U251 = test: NCI 60-cell drug screen, CNS Cancer U251; format: cell-based, human; conditions: 1.00E−5 Molar
786-0 = test: NCI 60-cell drug screen, Renal Cancer 786-0; format: cell-based, human; conditions: 1.00E−5 Molar
RXF 393 = test: NCI 60-cell drug screen, Renal Cancer RXF 393; format: cell-based, human; conditions: 1.00E−5 Molar
A549/ATCC = test: NCI 60-cell drug screen, Non-Small Cell Lung Cancer A549/ATCC; format: cell-based, human; conditions: 1.00E−5 Molar
A498 = test: NCI 60-cell drug screen, Renal Cancer A498; format: cell-based, human; conditions: 1.00E−5 Molar
SK-MEL-5 = test: NCI 60-cell drug screen, Melanoma SK-MEL-5; format: cell-based, human; conditions: 1.00E−5 Molar
MCF7 = test: NCI 60-cell drug screen, Breast Cancer MCF7; format: cell-based, human; conditions: 1.00E−5 Molar
DU-145 = test: NCI 60-cell drug screen, Prostate Cancer DU-145; format: cell-based, human; conditions: 1.00E−5 Molar
OVCAR-4 = test: NCI 60-cell drug screen, Ovarian Cancer OVCAR-4; format: cell-based, human; conditions: 1.00E−5 Molar
NCI-H226 = test: NCI 60-cell drug screen, Non-Small Cell Lung Cancer NCI-H226; format: cell-based, human; conditions: 1.00E−5 Molar
NCI-H23 = test: NCI 60-cell drug screen, Non-Small Cell Lung Cancer NCI-H23; format: cell-based, human; conditions: 1.00E−5 Molar
RPMI-8226 = test: NCI 60-cell drug screen, Leukemia RPMI-8226; format: cell-based, human; conditions: 1.00E−5 Molar
IGROV1 = test: NCI 60-cell drug screen, Ovarian Cancer IGROV1; format: cell-based, human; conditions: 1.00E−5 Molar
SVG p12 = test: MTT assay, SVG p12 normal cell; conditions: concentration 10 μM, normal cell
MALME-3M = test: NCI 60-cell drug screen, Melanoma MALME-3M; format: cell-based, human; conditions: 1.00E−5 Molar
SNB-75 = test: NCI 60-cell drug screen, CNS Cancer SNB-75; format: cell-based, human; conditions: 1.00E−5 Molar
LOX IMVI = test: NCI 60-cell drug screen, Melanoma LOX IMVI; format: cell-based, human; conditions: 1.00E−5 Molar
SK-MEL-28 = test: NCI 60-cell drug screen, Melanoma SK-MEL-28; format: cell-based, human; conditions: 1.00E−5 Molar
HCT-15 = test: NCI 60-cell drug screen, Colon Cancer HCT-15; format: cell-based, human; conditions: 1.00E−5 Molar
CCRF-CEM = test: NCI 60-cell drug screen, Leukemia CCRF-CEM; format: cell-based, human; conditions: 1.00E−5 Molar
UACC-257 = test: NCI 60-cell drug screen, Melanoma UACC-257; format: cell-based, human; conditions: 1.00E−5 Molar
NCI-H322M = test: NCI 60-cell drug screen, Non-Small Cell Lung Cancer NCI-H322M; format: cell-based, human; conditions: 1.00E−5 Molar
SF-539 = test: NCI 60-cell drug screen, CNS Cancer SF-539; format: cell-based, human; conditions: 1.00E−5 Molar
MDA-MB-231/ATCC = test: NCI 60-cell drug screen, Breast Cancer MDA-MB-231/ATCC; format: cell-based, human; conditions: 1.00E−5 Molar
OVCAR-8 = test: NCI 60-cell drug screen, Ovarian Cancer OVCAR-8; format: cell-based, human; conditions: 1.00E−5 Molar
KM12 = test: NCI 60-cell drug screen, Colon Cancer KM12; format: cell-based, human; conditions: 1.00E−5 Molar
[1] = tested on: 60 kinds of different human cancer cells; test: NCI 60-cell drug screen, whole panel (One Dose Mean Graph); format: cell-based; conditions: mean over the cell lines of the panel; 1.00E−5 Molar
GBM8901 = test: MTT assay, GBM8901 tumor cell; conditions: for Cell survival rate (%) GBM8901: concentration 10 μM, tumor cell
NCI/ADR-RES = test: NCI 60-cell drug screen, Ovarian Cancer NCI/ADR-RES; format: cell-based, human; conditions: 1.00E−5 Molar
Protocol: In brief, cellular protein levels were determined after 48 hours of drug exposure by sulforhodamine B colorimetry. Through the use of a time 0 cell control, the cell growth can be determined for each cell line thus allowing calculations of the 50% growth inhibitory concentration (GI50), the total growth inhibition (TGI), and the 50% lethal concentration (LC50). Comparison to plates not exposed to drug permits determination of concentration and times of exposure conferring 50% net growth inhibition (GI50), TGI, and 50% cell kill (LC50).
From the data analysis it follows that approximately 95% of the actives (potent anticancer drugs) from the 60 cell line screen can be identified. By these criteria, 6 compounds (each with its certification number, refer to Table 2) of the invention were reported that having anticancer activity.
The screening system in United State National Cancer Institute (NCI) consists of 60 kinds of different human cancer cells, which can be used to assay the growth-inhibiting ability or cell toxicity of a compound against various cancer and tumor at a certain concentration.
NCI had selected 6 compounds f1-0, f1-1, f3-1, f1-11, f1-2 and f1-15 as test compounds (Table 2). Among these compounds, compound f1-1 was effective against renal cancer cell strain CAKI-1, and could achieve an inhibition effect on the growth of said cancer cell up to −8.01. Compound f1-11 could achieve inhibiting effects against leukemia cell line CCRF-CEM and RPMI-8226, up to −15.39 and −60.17, respectively. Compound f1-2 was effective against central nervous system cancer cell line SNB-75, and could achieve an effect of inhibiting said cancer cell growth up to −9.55. Compound f1-15 was effective against leukemia (blood cancer) cell line K-562, MOLT-4, and RPMI-8226, and could achieve effects of inhibiting said cancer cells growth up to −31.59, −2.90 and −13.69, respectively. Further, compound f1-15 was effective also against renal cancer cell line CAKI-1, and could achieve an effect of inhibiting said cancer cell growth up to −14.89.

SW-620 = test: NCI 60-cell drug screen, Colon Cancer SW-620; format: cell-based, human; conditions: 1.00E−5 Molar
UO-31 = test: NCI 60-cell drug screen, Renal Cancer UO-31; format: cell-based, human; conditions: 1.00E−5 Molar
T-47D = test: NCI 60-cell drug screen, Breast Cancer T-47D; format: cell-based, human; conditions: 1.00E−5 Molar
EKVX = test: NCI 60-cell drug screen, Non-Small Cell Lung Cancer EKVX; format: cell-based, human; conditions: 1.00E−5 Molar
MDA-MB-435 = test: NCI 60-cell drug screen, Melanoma MDA-MB-435; format: cell-based, human; conditions: 1.00E−5 Molar
HOP-92 = test: NCI 60-cell drug screen, Non-Small Cell Lung Cancer HOP-92; format: cell-based, human; conditions: 1.00E−5 Molar
COLO 205 = test: NCI 60-cell drug screen, Colon Cancer COLO 205; format: cell-based, human; conditions: 1.00E−5 Molar
SK-MEL-2 = test: NCI 60-cell drug screen, Melanoma SK-MEL-2; format: cell-based, human; conditions: 1.00E−5 Molar
MOLT-4 = test: NCI 60-cell drug screen, Leukemia MOLT-4; format: cell-based, human; conditions: 1.00E−5 Molar

Row | Structure (SMILES) | Growth Percent, HOP-62 (HOP-62) [%] | Growth Percent, U251 (U251) [%] | Growth Percent, 786-0 (786-0) [%] | Growth Percent, RXF 393 (RXF 393) [%] | Growth Percent, A549/ATCC (A549/ATCC) [%] | Growth Percent, A498 (A498) [%] | Growth Percent, SK-MEL-5 (SK-MEL-5) [%] | Growth Percent, MCF7 (MCF7) [%] | Growth Percent, DU-145 (DU-145) [%] | Growth Percent, OVCAR-4 (OVCAR-4) [%] | Growth Percent, NCI-H226 (NCI-H226) [%] | Growth Percent, NCI-H23 (NCI-H23) [%] | Growth Percent, RPMI-8226 (RPMI-8226) [%] | Growth Percent, IGROV1 (IGROV1) [%] | Cell survival rate (%) SVG p12 (SVG p12) [%] | Growth Percent, MALME-3M (MALME-3M) [%] | Growth Percent, SNB-75 (SNB-75) [%] | Growth Percent, LOX IMVI (LOX IMVI) [%] | Growth Percent, SK-MEL-28 (SK-MEL-28) [%] | Growth Percent, HCT-15 (HCT-15) [%] | also measured
1 | O=C1c2ccccc2C(=O)c2c1ccc1nc(SCCN3CCCC3)[nH]c21 [f1-11] | 73.74 | 69.07 | 77.12 | 22.62 | 35.52 | 71.37 | 78.52 | 30.88 | 17.91 | 57.23 | 88.06 | 66.93 | −60.17 | 23.20 | 98 ± 1 | 112.31 | 81.75 | 11.89 | 100.23 | 40.36 | Growth Percent, CCRF-CEM (CCRF-CEM): −15.39%; Growth Percent, UACC-257 (UACC-257): 92.77%; Growth Percent, NCI-H322M (NCI-H322M): 73.18%; Growth Percent, SF-539 (SF-539): 62.25%; Growth Percent, MDA-MB-231/ATCC (MDA-MB-231/ATCC): 63.52%; Growth Percent, OVCAR-8 (OVCAR-8): 49.38%; Growth Percent, KM12 (KM12): 19.62%; Growth Percent, Mean [1]: 52.08%; Cell survival rate (%) GBM8901 (GBM8901): 18 ± 2%; Growth Percent, NCI/ADR-RES (NCI/ADR-RES): 53.74%; Growth Percent, SW-620 (SW-620): 22.75%; Growth Percent, UO-31 (UO-31): 21.22%; Growth Percent, T-47D (T-47D): 83.06%; Growth Percent, EKVX (EKVX): 73.04%; Growth Percent, MDA-MB-435 (MDA-MB-435): 66.47%; Growth Percent, HOP-92 (HOP-92): 35.17%; Growth Percent, COLO 205 (COLO 205): 17.13%; Growth Percent, SK-MEL-2 (SK-MEL-2): 106.62%; Growth Percent, MOLT-4 (MOLT-4): 30.94%
2 | CN(C)CCCSc1nc2ccc3c(c2[nH]1)C(=O)c1ccccc1C3=O [f1-15, 2-(3-(dimethylamino)propylthio)-1H-anthra[1,2-d]imidazole-6,11-dione] | 51.96 | 74.11 | 77.63 | 38.40 | 51.59 | 76.16 | 62.55 | 16.92 | 36.35 | 29.72 | 74.10 | 53.83 | −13.69 | 30.89 | 11 ± 6 | 88.23 | 50.54 | 28.57 | 102.07 | 36.27 | Growth Percent, CCRF-CEM (CCRF-CEM): 8.49%; Growth Percent, UACC-257 (UACC-257): 114.50%; Growth Percent, NCI-H322M (NCI-H322M): 70.75%; Growth Percent, SF-539 (SF-539): 57.50%; Growth Percent, MDA-MB-231/ATCC (MDA-MB-231/ATCC): 56.24%; Growth Percent, OVCAR-8 (OVCAR-8): 61.89%; Growth Percent, KM12 (KM12): 20.36%; Growth Percent, Mean [1]: 47.41%; Cell survival rate (%) GBM8901 (GBM8901): 63 ± 4%; Growth Percent, NCI/ADR-RES (NCI/ADR-RES): 54.32%; Growth Percent, SW-620 (SW-620): 26.35%; Growth Percent, UO-31 (UO-31): 25.50%; Growth Percent, T-47D (T-47D): 45.78%; Growth Percent, EKVX (EKVX): 65.23%; Growth Percent, MDA-MB-435 (MDA-MB-435): 72.18%; Growth Percent, HOP-92 (HOP-92): 15.99%; Growth Percent, COLO 205 (COLO 205): 62.01%; Growth Percent, SK-MEL-2 (SK-MEL-2): 80.03%; Growth Percent, MOLT-4 (MOLT-4): −2.90%
3 | O=C1c2ccccc2C(=O)c2c1ccc1nc3n(c21)CCS3 [f3-1, 2-(2-N-ethylthio)-1H-anthra[1,2-d]imidazole-6,11-dione] | 85.26 | 72.48 | 92.44 | 46.50 | 81.15 | 73.67 | 65.88 | 64.78 | 68.84 | 89.29 | 80.53 | 84.29 | 71.65 | 62.31 | 62 ± 1 | 87.59 | 95.57 | 65.93 | 109.36 | 57.15 | Growth Percent, CCRF-CEM (CCRF-CEM): 66.81%; Growth Percent, UACC-257 (UACC-257): 80.59%; Growth Percent, NCI-H322M (NCI-H322M): 72.06%; Growth Percent, SF-539 (SF-539): 74.06%; Growth Percent, MDA-MB-231/ATCC (MDA-MB-231/ATCC): 94.00%; Growth Percent, OVCAR-8 (OVCAR-8): 75.40%; Growth Percent, KM12 (KM12): 84.88%; Growth Percent, Mean [1]: 75.99%; Cell survival rate (%) GBM8901 (GBM8901): 37 ± 4%; inhibitory effect against tumor cell GBM8901 (GBM8901; survival rate less than 80%): exhibited inhibitory effect against tumor cell GBM8901; Growth Percent, NCI/ADR-RES (NCI/ADR-RES): 84.08%; Growth Percent, SW-620 (SW-620): 69.29%; Growth Percent, UO-31 (UO-31): 45.79%; Growth Percent, T-47D (T-47D): 73.06%; Growth Percent, EKVX (EKVX): 35.80%; Growth Percent, MDA-MB-435 (MDA-MB-435): 83.11%; Growth Percent, HOP-92 (HOP-92): 88.67%; Growth Percent, COLO 205 (COLO 205): 95.22%; Growth Percent, SK-MEL-2 (SK-MEL-2): 99.88%; Growth Percent, MOLT-4 (MOLT-4): 58.39%
